Results on four molecules are retold here after patent publication US9663527B2, “Factor XIa inhibitors” (Merck Sharp & Dohme Corp., priority 2014, dated 2017).

Structures can show the parent of a compound that is named as a salt.

The term Ki denotes a measure of affinity in units of concentration, obtained from inhibition or displacement.

The target of this experiment is purified human Factor XIa (Homo sapiens (Human), UniProt P03951). As to the kind of experiment: Factor XIa Assay. It is filed as biochemical. The note with it: purified human Factor XIa 40 pM, substrate Z-Gly-Pro-Arg-AFC 100 μM, pH 7.4; read-out: hFactor XIa Ki. As to the method: The effectiveness of a compound of the present invention as an inhibitor of Coagulation Factor XIa can be determined using a relevant purified serine protease, and an appropriate synthetic substrate. The rate of hydrolysis of the chromogenic or fluorogenic substrate by the relevant serine protease was measured both in the absence and presence of compounds of the present invention. Assays were conducted at room temperature or at 37° C. […] A decrease in the rate of fluorescence change in the presence of inhibitor is indicative of enzyme inhibition. Such methods are known to one skilled in the art. The results of this assay are expressed as the inhibitory constant, Ki.
Chain of purified human Factor XIa (P03951 388-625): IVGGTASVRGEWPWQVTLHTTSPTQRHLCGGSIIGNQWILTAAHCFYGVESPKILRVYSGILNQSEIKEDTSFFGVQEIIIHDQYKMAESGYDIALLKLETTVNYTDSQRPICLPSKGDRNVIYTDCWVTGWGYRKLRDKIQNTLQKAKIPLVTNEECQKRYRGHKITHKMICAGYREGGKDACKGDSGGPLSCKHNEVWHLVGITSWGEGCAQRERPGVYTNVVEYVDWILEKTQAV
Chain of purified human Factor XIa (P03951 19-387 partner): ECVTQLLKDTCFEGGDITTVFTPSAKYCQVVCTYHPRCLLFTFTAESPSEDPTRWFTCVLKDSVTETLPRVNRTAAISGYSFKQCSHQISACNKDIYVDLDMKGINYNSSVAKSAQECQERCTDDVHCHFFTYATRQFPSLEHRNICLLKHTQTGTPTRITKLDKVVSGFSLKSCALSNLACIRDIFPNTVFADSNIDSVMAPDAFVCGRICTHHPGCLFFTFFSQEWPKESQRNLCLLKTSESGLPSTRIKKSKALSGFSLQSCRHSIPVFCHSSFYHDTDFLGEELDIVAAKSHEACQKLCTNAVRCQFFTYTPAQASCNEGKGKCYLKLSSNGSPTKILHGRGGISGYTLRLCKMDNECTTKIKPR
Factor XIa determinations were made in 50 mM HEPES buffer at pH 7.4 containing 150 mM NaCl, 5 mM CaCl2, and 0.1% PEG 8000 (polyethylene glycol; JT Baker or Fisher Scientific). Determinations were made using purified human Factor XIa at a final concentration of 40 pM (Sekisui Diagnostics) and the synthetic substrate, Z-Gly-Pro-Arg-AFC, TFA salt (Sigma #C0980) at a concentration of 100 μM.
Activity assays were performed by diluting a stock solution of substrate at least tenfold to a final concentration ≦0.1 Km into a solution containing enzyme or enzyme equilibrated with inhibitor. Times required to achieve equilibration between enzyme and inhibitor were determined in control experiments. Initial velocities of product formation in the absence (Vo) or presence of inhibitor (Vi) were measured. Assuming competitive inhibition, and that unity is negligible compared Km/[S], [I]/e, and [I]/e (where [S], [I], and e respectively represent the total concentrations, of substrate, inhibitor and enzyme), the equilibrium constant (Ki) for dissociation of the inhibitor from the enzyme can be obtained from the dependence of Vo/Vi on [I] shown in the following equation. Vo/Vi=1+[I]/Ki
For `COC(=O)Nc1ccc2c(c1)NC(=O)CCCC[C@H](N1CCc3cc(CN)ccc3C1=O)c1nc-2c[nH]1` [Example 1, Methyl [(7S)-7-[6-(aminomethyl)-1-oxo-3,4-dihydroisoquinolin-2(1H)-yl]-2-oxo-1,2,3,4,5,6,7,9-octahydro-11,8-(azeno)-1,9-benzodiazacyclotridecin-14-yl]carbamate], the inhibition constant (Ki) worked out at 2.4 nM.

As for `COC(=O)Nc1ccc2c(c1)NC(=O)CCCC[C@H](N1CCCc3cc(CN)ccc3C1=O)c1nc-2c[nH]1` [Example 2, Methyl [(7S)-7-[7-(aminomethyl)-1-oxo-1,3,4,5-tetrahydro-2H-2-benzazepin-2-yl]-2-oxo-1,2,3,4,5,6,7,9-octahydro-11,8-(azeno)-1,9-benzodiazacyclotridecin-14-yl]carbamate trifluoroacetate], the inhibitory constant (Ki) was found to be 3.9 nM.

`COC(=O)Nc1ccc2c(c1)NC(=O)CCCC[C@H](N1Cc3cc(CN)ccc3C1=O)c1nc-2c[nH]1` [Example 3, Methyl [(7S)-7-[5-(aminomethyl)-1-oxo-1,3-dihydro-2H-isoindol-2-yl]-2-oxo-1,2,3,4,5,6,7,9-octahydro-11,8-(azeno)-1,9-benzodiazacyclotridecin-14-yl]carbamate]: the inhibition constant (Ki) was determined as 70 nM.

`NCc1ccc2c(c1)CCN([C@H]1CCCCC(=O)Nc3ccc(F)cc3-c3ccnc1c3)C2=O` [Example 4, 9-(6-(aminomethyl)-1-oxo-3,4-dihydroisoquinolin-2(1H)-yl)-2^5-fluoro-3-aza-1(4,2)-pyridina-2(1,2)-benzenacyclononaphan-4-one]: the Ki was determined as 170 nM.
